Experiments:
CD73 [1] = biological target: T1, CD73 (Homo sapiens (Human), UniProt P21589); test: MDA-MB-231 Cell Based CD73 Activity Assay (DMEM); settings: MDA-MB-231-GFP cells, DMEM medium with 10% human plasma, 200 uM AMP
CD73 [2] = biological target: T1, CD73; assay type: biochemical; settings: 1 mM NaH2PO4 in enzyme buffer, CD73 0.3 nM, AMP 15 uM

T1 sequence (P21589 27-574): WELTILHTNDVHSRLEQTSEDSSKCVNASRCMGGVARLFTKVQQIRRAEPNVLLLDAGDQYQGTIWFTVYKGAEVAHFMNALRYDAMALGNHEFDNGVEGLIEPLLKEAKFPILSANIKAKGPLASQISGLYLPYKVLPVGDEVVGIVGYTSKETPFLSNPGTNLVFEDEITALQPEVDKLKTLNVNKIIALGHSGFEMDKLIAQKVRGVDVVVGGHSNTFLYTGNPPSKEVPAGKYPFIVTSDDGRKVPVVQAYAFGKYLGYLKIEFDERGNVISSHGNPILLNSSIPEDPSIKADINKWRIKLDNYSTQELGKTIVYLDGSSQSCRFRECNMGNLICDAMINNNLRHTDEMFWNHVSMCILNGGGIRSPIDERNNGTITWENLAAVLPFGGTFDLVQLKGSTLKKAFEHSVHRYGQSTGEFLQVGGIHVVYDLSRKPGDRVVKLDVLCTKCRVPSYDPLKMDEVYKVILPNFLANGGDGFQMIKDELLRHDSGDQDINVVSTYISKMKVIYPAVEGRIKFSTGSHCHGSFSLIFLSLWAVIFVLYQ

| SMILES | EC50 (CD73 [1]) [nM] | IC50 (CD73 [2]) [nM] |
| --- | --- | --- |
| O=c1[nH]cc(-c2cc(N3CC(F)(C(F)(F)F)C3)n3nccc3n2)c(=O)[nH]1 [Example 244, 5-(7-(3-fluoro-3-(trifluoromethyl)azetidin-1-yl)pyrazolo[1,5-a]pyrimidin-5-yl)pyrimidine-2,4(1H,3H)-dione] | 574 | 108 |
| CC(=O)NC1CCN(c2cc(-c3c[nH]c(=O)[nH]c3=O)nc3ccnn23)C1 (stereo not drawn) [Example 245, N-(1-(5-(2,4-dioxo-1,2,3,4-tetrahydropyrimidin-5-yl)pyrazolo[1,5-a]pyrimidin-7-yl)pyrrolidin-3-yl)acetamide] | 747 | 170 |
| CC1(O)CCN(c2cc(-c3c[nH]c(=O)[nH]c3=O)nc3ccnn23)C1 (stereo not drawn) [Example 246, 5-(7-(3-hydroxy-3-methylpyrrolidin-1-yl)pyrazolo[1,5-a]pyrimidin-5-yl)pyrimidine-2,4(1H,3H)-dione] | 213 | 168 |
| O=c1[nH]cc(-c2cc(N3CCC(c4ccc(C(F)(F)F)cc4)C3)c3nccn3n2)c(=O)[nH]1 (stereo not drawn) [Example 248, 5-(8-(3-(4-(trifluoromethyl)phenyl)pyrrolidin-1-yl)imidazo[1,2-b]pyridazin-6-yl)pyrimidine-2,4(1H,3H)-dione] | 36.3 | 15.1 |
| O=c1[nH]cc(-c2cc(N3CCC(c4cccc(C(F)(F)F)c4)C3)c3nccn3n2)c(=O)[nH]1 (stereo not drawn) [Example 249, 5-(8-(3-(3-(trifluoromethyl)phenyl)pyrrolidin-1-yl)imidazo[1,2-b]pyridazin-6-yl)pyrimidine-2,4(1H,3H)-dione] | 249 | 46.1 |
| O=c1[nH]cc(-c2cc(N3CCC(c4ccccc4C(F)(F)F)C3)c3nccn3n2)c(=O)[nH]1 (stereo not drawn) [Example 250, 5-(8-(3-(2-(trifluoromethyl)phenyl)pyrrolidin-1-yl)imidazo[1,2-b]pyridazin-6-yl)pyrimidine-2,4(1H,3H)-dione] | 687 | 110 |
| O=c1[nH]cc(-c2cc(N3CC(c4ccc(OC(F)(F)F)cc4)C3)c3nccn3n2)c(=O)[nH]1 [Example 252, 5-(8-(3-(4-(trifluoromethoxy)phenyl)azetidin-1-yl)imidazo[1,2-b]pyridazin-6-yl)pyrimidine-2,4(1H,3H)-dione] | 1240 | 174 |
| O=c1[nH]cc(-c2cc(N3CCC(F)(c4ccccc4)C3)c3nccn3n2)c(=O)[nH]1 (stereo not drawn) [Example 253, 5-(8-(3-fluoro-3-phenylpyrrolidin-1-yl)imidazo[1,2-b]pyridazin-6-yl)pyrimidine-2,4(1H,3H)-dione] | 160 | 20 |
| O=c1[nH]cc(-c2cc(N3CCC(F)(c4ccc(C(F)(F)F)cc4)C3)c3nccn3n2)c(=O)[nH]1 (stereo not drawn) [Example 256, 5-(8-(3-fluoro-3-(4-(trifluoromethyl)phenyl)pyrrolidin-1-yl)imidazo[1,2-b]pyridazin-6-yl)pyrimidine-2,4(1H,3H)-dione] | 185 | 43.1 |
| O=c1[nH]cc(-c2cc(N3CCC4(CC4)C(F)(F)C3)c3nccn3n2)c(=O)[nH]1 [Example 260, 5-(8-(4,4-difluoro-6-azaspiro[2.5]octan-6-yl)imidazo[1,2-b]pyridazin-6-yl)pyrimidine-2,4(1H,3H)-dione] | 963 | > 250 |
| COC(=O)c1ccc(C2CN(c3cc(-c4c[nH]c(=O)[nH]c4=O)nn4ccnc34)C2)cc1 [Example 261, Methyl 4-(1-(6-(2,4-dioxo-1,2,3,4-tetrahydropyrimidin-5-yl)imidazo[1,2-b]pyridazin-8-yl)azetidin-3-yl)benzoate] | 139 | 13.9 |
| O=c1[nH]cc(-c2cc(N3CCC(c4ccc(C(F)(F)F)cc4)C3)c3ncc(F)n3n2)c(=O)[nH]1 (stereo not drawn) [Example 262, 5-(3-fluoro-8-(3-(4-(trifluoromethyl)phenyl)pyrrolidin-1-yl)imidazo[1,2-b]pyridazin-6-yl)pyrimidine-2,4(1H,3H)-dione] | 565 | 73.4 |

Second part, the compound after the results:

| EC50 (CD73 [1]) [nM] | IC50 (CD73 [2]) [nM] | SMILES |
| --- | --- | --- |
| 0.8 | 1.17 | O=C(Nc1ccccc1F)OC1CN(c2cc(-c3c[nH]c(=O)[nH]c3=O)nn3ccnc23)CC1(F)F (stereo not drawn) [Example 233, 1-(6-(2,4-dioxo-1,2,3,4-tetrahydropyrimidin-5-yl)imidazo[1,2-b]pyridazin-8-yl)-4,4-difluoropyrrolidin-3-yl (2-fluorophenyl)carbamate] |
| 6.56 | 0.62 | O=C(Nc1ccccc1F)OCC(F)(F)COc1cc(-c2c[nH]c(=O)[nH]c2=O)nn2ccnc12 [Example 234, 3-((6-(2,4-dioxo-1,2,3,4-tetrahydropyrimidin-5-yl)imidazo[1,2-b]pyridazin-8-yl)oxy)-2,2-difluoropropyl (2-fluorophenyl)carbamate] |
| 0.82 | 0.96 | O=C(Nc1ccc(F)cc1F)O[C@H]1CN(c2cc(-c3c[nH]c(=O)[nH]c3=O)nn3ccnc23)CC1(F)F [Example 235, (S)-1-(6-(2,4-dioxo-1,2,3,4-tetrahydropyrimidin-5-yl)imidazo[1,2-b]pyridazin-8-yl)-4,4-difluoropyrrolidin-3-yl (2,4-difluorophenyl)carbamate] |
| 3.04 | 1.02 | Cc1ccc(NC(=O)O[C@H]2CN(c3cc(-c4c[nH]c(=O)[nH]c4=O)nn4ccnc34)CC2(F)F)c(F)c1 [Example 236, (S)-1-(6-(2,4-dioxo-1,2,3,4-tetrahydropyrimidin-5-yl)imidazo[1,2-b]pyridazin-8-yl)-4,4-difluoropyrrolidin-3-yl (2-fluoro-4-methylphenyl)carbamate] |
| 1.1 | 0.7 | N#Cc1ccc(O[C@H]2CN(c3cc(-c4c[nH]c(=O)[nH]c4=O)nn4ccnc34)CC2(F)F)cc1 [Example 237, (S)-4-((1-(6-(2,4-dioxo-1,2,3,4-tetrahydropyrimidin-5-yl)imidazo[1,2-b]pyridazin-8-yl)-4,4-difluoropyrrolidin-3-yl)oxy)benzonitrile] |
| 5.18 | 0.36 | O=C(Nc1ccc(F)cc1F)OCC(F)(F)COc1cc(-c2c[nH]c(=O)[nH]c2=O)nn2ccnc12 [Example 238, 3-((6-(2,4-dioxo-1,2,3,4-tetrahydropyrimidin-5-yl)imidazo[1,2-b]pyridazin-8-yl)oxy)-2,2-difluoropropyl (2,4-difluorophenyl)carbamate] |
| 1.17 | 0.86 | O=C(Nc1c(F)cc(F)cc1F)O[C@H]1CN(c2cc(-c3c[nH]c(=O)[nH]c3=O)nn3ccnc23)CC1(F)F [Example 239, (S)-1-(6-(2,4-dioxo-1,2,3,4-tetrahydropyrimidin-5-yl)imidazo[1,2-b]pyridazin-8-yl)-4,4-difluoropyrrolidin-3-yl (2,4,6-trifluorophenyl)carbamate] |
| 3.79 | 0.28 | O=c1[nH]cc(-c2cc(N3CC[C@@H](Oc4ccc(F)cc4)C3)c3nccn3n2)c(=O)[nH]1 [Example 240, (R)-5-(8-(3-(4-fluorophenoxy)pyrrolidin-1-yl)imidazo[1,2-b]pyridazin-6-yl)pyrimidine-2,4(1H,3H)-dione] |
| 1.41 | 2.13 | O=C(Nc1ccccc1F)O[C@H]1CN(c2cc(-c3c[nH]c(=O)[nH]c3=O)nn3ccnc23)CC1(F)F [Example 241, (S)-1-(6-(2,4-dioxo-1,2,3,4-tetrahydropyrimidin-5-yl)imidazo[1,2-b]pyridazin-8-yl)-4,4-difluoropyrrolidin-3-yl (2-fluorophenyl)carbamate] |
| 2.43 | 0.22 | O=c1[nH]cc(-c2cc(N3CCC(Oc4ccccc4)C3)c3nccn3n2)c(=O)[nH]1 (stereo not drawn) [Example 242, 5-(8-(3-phenoxypyrrolidin-1-yl)imidazo[1,2-b]pyridazin-6-yl)pyrimidine-2,4(1H,3H)-dione] |
| 56.1 | 22.2 | CC1(O)CCN(c2cc(-c3c[nH]c(=O)[nH]c3=O)nn3ccnc23)C1 (stereo not drawn) [Example 243, 5-(8-(3-hydroxy-3-methylpyrrolidin-1-yl)imidazo[1,2-b]pyridazin-6-yl)pyrimidine-2,4(1H,3H)-dione] |
| 93.6 | 41.9 | N#Cc1ccc(C2CN(c3cc(-c4c[nH]c(=O)[nH]c4=O)nn4ccnc34)C2)cc1 [Example 247, 4-(1-(6-(2,4-dioxo-1,2,3,4-tetrahydropyrimidin-5-yl)imidazo[1,2-b]pyridazin-8-yl)azetidin-3-yl)benzonitrile] |
| 125 | 17.6 | COc1ccc(C2CN(c3cc(-c4c[nH]c(=O)[nH]c4=O)nn4ccnc34)C2)cc1 [Example 251, 5-(8-(3-(4-methoxyphenyl)azetidin-1-yl)imidazo[1,2-b]pyridazin-6-yl)pyrimidine-2,4(1H,3H)-dione] |
| 136 | 26.6 | O=c1[nH]cc(-c2cc(N3CCC4CC43)c3nccn3n2)c(=O)[nH]1 (stereo not drawn) [Example 254, 5-(8-(2-azabicyclo[3.1.0]hexan-2-yl)imidazo[1,2-b]pyridazin-6-yl)pyrimidine-2,4(1H,3H)-dione] |
| 113 | 17.5 | O=c1[nH]cc(-c2cc(N3CCC(F)(c4ccc(F)cc4)C3)c3nccn3n2)c(=O)[nH]1 (stereo not drawn) [Example 255, 5-(8-(3-fluoro-3-(4-fluorophenyl)pyrrolidin-1-yl)imidazo[1,2-b]pyridazin-6-yl)pyrimidine-2,4(1H,3H)-dione] |
| 103 | 51.7 | O=c1[nH]cc(-c2cc(N3CCC4CCC43)c3nccn3n2)c(=O)[nH]1 (stereo not drawn) [Example 257, 5-(8-(2-azabicyclo[3.2.0]heptan-2-yl)imidazo[1,2-b]pyridazin-6-yl)pyrimidine-2,4(1H,3H)-dione] |
| 106 | 52.4 | O=c1[nH]cc(-c2cc(N3CC(c4ccc(F)cc4)C3)c3nccn3n2)c(=O)[nH]1 [Example 258, 5-(8-(3-(4-fluorophenyl)azetidin-1-yl)imidazo[1,2-b]pyridazin-6-yl)pyrimidine-2,4(1H,3H)-dione] |
| 80.7 | 14.7 | O=c1[nH]cc(-c2cc(N3CC(F)(c4ccccc4)C3)c3nccn3n2)c(=O)[nH]1 [Example 259, 5-(8-(3-fluoro-3-phenylazetidin-1-yl)imidazo[1,2-b]pyridazin-6-yl)pyrimidine-2,4(1H,3H)-dione] |

Source: patent publication US20240043427A1 (Gilead Sciences, Inc., priority 2020, published 2024)
